1 molecule from BindingDB's records for doi:10.1021/jm00170a007 (Pfizer, 1990) can be followed below.

SMILES strings stand for the structures. pIC50: −log10 of the molar value.

Test [1] in a line: inhibitory activity against 5-hydroxytryptamine 1C receptor of pig choroid plexus using [3H]mesulergine as the radioligand.
Test [2] is described as follows: Compound was evaluated for its inhibitory activity against 5-hydroxytryptamine 1D receptor of bovine caudate using [3H]5-HT as the radioligand.

On to `FC(F)(F)c1ccc2c(c1)nc(N1CCNCC1)c1cccn12` [4-Piperazin-1-yl-7-trifluoromethyl-pyrrolo[1,2-a]quinoxaline(desmethyl-CGS-12066B)], for which the pIC50 (in general, −log10 of the IC50, conventionally taken in molar units) in test [1] was 5.00; in test [2], 6.72.
